# Test results reported in article PMC5392334, “Discovery and characterization of a novel irreversible EGFR mutants selective and potent kinase inhibitor CHMFL-EGFR-26 with a distinct binding mode” (Oncotarget, 2017).
# Legend:
# [1] = molecular target: T1, ABL1(F317I)-phosphorylated (Homo sapiens, UniProt P00519, F317I); assay: KinomeScan; format: binding; details: read-out: % control
# T1 construct: purchased DiscoveRx KINOMEscan
# ABL2 = molecular target: T2, ABL2 (Homo sapiens, UniProt P42684); assay: KinomeScan; format: binding; details: read-out: % control
# T2 construct: purchased DiscoveRx KINOMEscan
# AMPK-alpha1 = molecular target: T3, AMPK-alpha1 (Homo sapiens, UniProt Q13131); assay: KinomeScan; format: binding; details: read-out: % control
# T3 construct: purchased DiscoveRx KINOMEscan
# ASK2 = molecular target: T4, ASK2 (Homo sapiens, UniProt O95382); assay: KinomeScan; format: binding; details: read-out: % control
# T4 construct: purchased DiscoveRx KINOMEscan
# CAMK2D = molecular target: T5, CAMK2D (Homo sapiens, UniProt Q13557); assay: KinomeScan; format: binding; details: read-out: % control
# T5 construct: purchased DiscoveRx KINOMEscan
# CDK3 = molecular target: T6, CDK3 (Homo sapiens, UniProt Q00526); assay: KinomeScan; format: binding; details: read-out: % control
# T6 construct: purchased DiscoveRx KINOMEscan
# DAPK1 = molecular target: T7, DAPK1 (Homo sapiens, UniProt P53355); assay: KinomeScan; format: binding; details: read-out: % control
# T7 construct: purchased DiscoveRx KINOMEscan
# DCAMKL1 = molecular target: T8, DCAMKL1 (Homo sapiens, UniProt O15075); assay: KinomeScan; format: binding; details: read-out: % control
# T8 construct: purchased DiscoveRx KINOMEscan
# EGFR(L858R,T790M) = molecular target: T9, EGFR(L858R,T790M) (Homo sapiens, UniProt P00533, L858R/T790M); assay: KinomeScan; format: binding; details: read-out: % control
# T9 construct: purchased DiscoveRx KINOMEscan
# ERBB4 = molecular target: T10, ERBB4 (Homo sapiens, UniProt Q15303); assay: KinomeScan; format: binding; details: read-out: % control
# T10 construct: purchased DiscoveRx KINOMEscan
# FLT3(K663Q) = molecular target: T11, FLT3(K663Q) (Homo sapiens, UniProt P36888, K663Q); assay: KinomeScan; format: binding; details: read-out: % control
# T11 construct: purchased DiscoveRx KINOMEscan
# FRK = molecular target: T12, FRK (Homo sapiens, UniProt P42685); assay: KinomeScan; format: binding; details: read-out: % control
# T12 construct: purchased DiscoveRx KINOMEscan
# GRK2 = molecular target: T13, GRK2 (Homo sapiens, UniProt P25098); assay: KinomeScan; format: binding; details: read-out: % control
# T13 construct: purchased DiscoveRx KINOMEscan
# GRK7 = molecular target: T14, GRK7 (Homo sapiens, UniProt Q8WTQ7); assay: KinomeScan; format: binding; details: read-out: % control
# T14 construct: purchased DiscoveRx KINOMEscan
# HUNK = molecular target: T15, HUNK (Homo sapiens, UniProt P57058); assay: KinomeScan; format: binding; details: read-out: % control
# T15 construct: purchased DiscoveRx KINOMEscan
# LATS2 = molecular target: T16, LATS2 (Homo sapiens, UniProt Q9NRM7); assay: KinomeScan; format: binding; details: read-out: % control
# T16 construct: purchased DiscoveRx KINOMEscan
# LIMK1 = molecular target: T17, LIMK1 (Homo sapiens, UniProt P53667); assay: KinomeScan; format: binding; details: read-out: % control
# T17 construct: purchased DiscoveRx KINOMEscan
# MERTK = molecular target: T18, MERTK (Homo sapiens, UniProt Q12866); assay: KinomeScan; format: binding; details: read-out: % control
# T18 construct: purchased DiscoveRx KINOMEscan
# MKK7 = molecular target: T19, MKK7 (Homo sapiens, UniProt O14733); assay: KinomeScan; format: binding; details: read-out: % control
# T19 construct: purchased DiscoveRx KINOMEscan
# MST1 = molecular target: T20, MST1 (Homo sapiens, UniProt Q13043); assay: KinomeScan; format: binding; details: read-out: % control
# T20 construct: purchased DiscoveRx KINOMEscan
# MYLK4 = molecular target: T21, MYLK4 (Homo sapiens, UniProt Q86YV6); assay: KinomeScan; format: binding; details: read-out: % control
# T21 construct: purchased DiscoveRx KINOMEscan
# PAK2 = molecular target: T22, PAK2 (Homo sapiens, UniProt Q13177); assay: KinomeScan; format: binding; details: read-out: % control
# T22 construct: purchased DiscoveRx KINOMEscan
# PIP5K2B = molecular target: T23, PIP5K2B (Homo sapiens, UniProt P78356); assay: KinomeScan; format: binding; details: read-out: % control
# T23 construct: purchased DiscoveRx KINOMEscan
# PRKCI = molecular target: T24, PRKCI (Homo sapiens, UniProt P41743); assay: KinomeScan; format: binding; details: read-out: % control
# T24 construct: purchased DiscoveRx KINOMEscan
# PRKCQ = molecular target: T25, PRKCQ (Homo sapiens, UniProt Q04759); assay: KinomeScan; format: binding; details: read-out: % control
# T25 construct: purchased DiscoveRx KINOMEscan
# RET(V804M) = molecular target: T26, RET(V804M) (Homo sapiens, UniProt P07949, V804M); assay: KinomeScan; format: binding; details: read-out: % control
# T26 construct: purchased DiscoveRx KINOMEscan
# [2] = molecular target: T27, RSK1(Kin.Dom.2-C-terminal) (Homo sapiens, UniProt Q15418); assay: KinomeScan; format: binding; details: read-out: % control
# T27 construct: RSK1(Kin.Dom.2-C-terminal); purchased DiscoveRx KINOMEscan
# SIK = molecular target: T28, SIK (Homo sapiens, UniProt P57059); assay: KinomeScan; format: binding; details: read-out: % control
# T28 construct: purchased DiscoveRx KINOMEscan
# SNARK = molecular target: T29, SNARK (Homo sapiens, UniProt Q9H093); assay: KinomeScan; format: binding; details: read-out: % control
# T29 construct: purchased DiscoveRx KINOMEscan
# STK36 = molecular target: T30, STK36 (Homo sapiens, UniProt Q9NRP7); assay: KinomeScan; format: binding; details: read-out: % control
# T30 construct: purchased DiscoveRx KINOMEscan
# BLK = molecular target: T31, BLK (Homo sapiens, UniProt P51451); assay: Invitrogen SelectScreen biochemical assay
# T31 construct: purchased Invitrogen (SelectScreen service)
# Text: (§1) In order to better understand CHMFL-EGFR-26's selectivity, we then tested it in DiscoveRx's KinomeScan™ assay. […] Given the fact that KinomeScan™ is a binding assay and sometimes cannot truly reflect the compound inhibitory activity, we then used Invitrogen SelectScreen® assay to test these potential off-targets (Supplementary Table 2). […] This was not surprising because EGFR, JAK3, HER2, HER4 and TEC family kinases (BTK, BLK and BMX) all share a similar cysteine residue at the identical position analogous to Cys 797 in EGFR in the hinge binding area.
# (§2) www.impactjournals.com/oncotarget/ Oncotarget, Supplementary Materials 2017
# (§3) KinomeScan Profiling by invitrogen SelectScreen® assay
# (§4) (1 picture or pasted object on this page, not shown here)
# BMX = molecular target: T32, BMX (Homo sapiens, UniProt P51813); assay: Invitrogen SelectScreen biochemical assay
# T32 construct: purchased Invitrogen (SelectScreen service)
# Text: as §1, §2, §3, §4
# BTK = molecular target: T33, BTK (Homo sapiens, UniProt Q06187); assay: Invitrogen SelectScreen biochemical assay
# T33 construct: purchased Invitrogen (SelectScreen service)
# Text: as §1, §2, §3, §4
# HER2 = molecular target: T34, HER2 (Homo sapiens, UniProt P04626); assay: Invitrogen SelectScreen biochemical assay
# T34 construct: purchased Invitrogen (SelectScreen service)
# Text: as §1, §2, §3, §4
# HER4 = molecular target: T35, HER4 (Homo sapiens, UniProt Q15303); assay: Invitrogen SelectScreen biochemical assay
# T35 construct: purchased Invitrogen (SelectScreen service)
# Text: as §1, §2, §3, §4
# JAK3 = molecular target: T36, JAK3 (Homo sapiens, UniProt P52333); assay: Invitrogen SelectScreen biochemical assay
# T36 construct: purchased Invitrogen (SelectScreen service)
# Text: as §1, §2, §3, §4
# MEK1 = molecular target: T37, MEK1 (Homo sapiens, UniProt Q02750); assay: Invitrogen SelectScreen biochemical assay
# T37 construct: purchased Invitrogen (SelectScreen service)
# Text: as §1, §2, §3, §4
# BaF3-INSR = assay: Anti-proliferative effects, INSR transformed isogenic BaF3 cells; format: cell-based; details: Mus musculus, read-out: IC50 (anti-proliferative; GI50)
# BaF3-IGF1R = assay: Anti-proliferative effects, IGF1R transformed isogenic BaF3 cells; format: cell-based; details: Mus musculus, read-out: IC50 (anti-proliferative; GI50)
# T14 sequence (Q8WTQ7 whole entry): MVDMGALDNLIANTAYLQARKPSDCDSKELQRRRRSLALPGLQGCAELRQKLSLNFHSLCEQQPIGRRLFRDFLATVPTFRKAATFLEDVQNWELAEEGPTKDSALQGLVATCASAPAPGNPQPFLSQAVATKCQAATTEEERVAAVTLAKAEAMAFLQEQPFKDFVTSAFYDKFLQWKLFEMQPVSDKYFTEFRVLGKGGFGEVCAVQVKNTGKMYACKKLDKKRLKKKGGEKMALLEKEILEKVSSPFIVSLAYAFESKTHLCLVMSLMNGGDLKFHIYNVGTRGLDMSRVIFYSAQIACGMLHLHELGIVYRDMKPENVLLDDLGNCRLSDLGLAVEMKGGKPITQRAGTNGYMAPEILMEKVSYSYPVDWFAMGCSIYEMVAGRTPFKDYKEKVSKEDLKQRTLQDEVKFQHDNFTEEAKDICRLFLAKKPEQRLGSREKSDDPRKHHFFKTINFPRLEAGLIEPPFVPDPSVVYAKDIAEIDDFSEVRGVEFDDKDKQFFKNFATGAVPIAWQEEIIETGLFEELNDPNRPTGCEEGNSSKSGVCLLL
# T30 sequence (Q9NRP7 whole entry): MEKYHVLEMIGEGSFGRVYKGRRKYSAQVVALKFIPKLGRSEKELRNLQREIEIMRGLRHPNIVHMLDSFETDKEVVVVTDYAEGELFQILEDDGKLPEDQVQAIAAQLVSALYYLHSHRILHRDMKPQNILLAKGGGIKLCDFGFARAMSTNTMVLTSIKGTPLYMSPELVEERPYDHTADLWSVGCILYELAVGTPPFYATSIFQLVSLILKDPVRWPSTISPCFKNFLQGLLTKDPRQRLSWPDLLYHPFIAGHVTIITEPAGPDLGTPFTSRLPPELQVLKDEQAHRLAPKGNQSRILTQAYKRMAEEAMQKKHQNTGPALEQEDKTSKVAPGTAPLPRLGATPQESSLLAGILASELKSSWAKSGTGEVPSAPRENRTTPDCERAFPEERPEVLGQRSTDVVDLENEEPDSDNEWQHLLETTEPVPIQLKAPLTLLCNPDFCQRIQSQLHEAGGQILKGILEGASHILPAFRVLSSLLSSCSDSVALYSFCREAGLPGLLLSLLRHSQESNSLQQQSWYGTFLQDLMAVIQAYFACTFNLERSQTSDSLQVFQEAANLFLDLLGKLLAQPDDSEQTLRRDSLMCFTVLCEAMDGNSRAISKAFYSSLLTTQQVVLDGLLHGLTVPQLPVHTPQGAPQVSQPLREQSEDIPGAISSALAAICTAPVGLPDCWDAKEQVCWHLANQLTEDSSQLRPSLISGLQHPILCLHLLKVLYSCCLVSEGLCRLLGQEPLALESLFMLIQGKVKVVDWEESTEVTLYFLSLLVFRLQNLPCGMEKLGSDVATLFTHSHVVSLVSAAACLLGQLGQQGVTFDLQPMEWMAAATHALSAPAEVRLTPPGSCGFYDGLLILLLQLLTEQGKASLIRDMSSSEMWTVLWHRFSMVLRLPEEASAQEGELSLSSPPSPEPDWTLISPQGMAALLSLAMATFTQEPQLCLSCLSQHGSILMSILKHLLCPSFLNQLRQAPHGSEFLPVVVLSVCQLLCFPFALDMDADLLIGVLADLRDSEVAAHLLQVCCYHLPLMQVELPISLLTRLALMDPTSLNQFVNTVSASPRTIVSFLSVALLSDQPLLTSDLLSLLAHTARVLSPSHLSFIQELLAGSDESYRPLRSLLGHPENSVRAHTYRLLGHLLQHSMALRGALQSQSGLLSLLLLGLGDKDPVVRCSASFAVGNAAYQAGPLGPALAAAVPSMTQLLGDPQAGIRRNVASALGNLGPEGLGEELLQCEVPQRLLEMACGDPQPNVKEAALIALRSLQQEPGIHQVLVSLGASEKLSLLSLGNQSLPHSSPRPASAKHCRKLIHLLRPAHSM
# T7 sequence (P53355 whole entry): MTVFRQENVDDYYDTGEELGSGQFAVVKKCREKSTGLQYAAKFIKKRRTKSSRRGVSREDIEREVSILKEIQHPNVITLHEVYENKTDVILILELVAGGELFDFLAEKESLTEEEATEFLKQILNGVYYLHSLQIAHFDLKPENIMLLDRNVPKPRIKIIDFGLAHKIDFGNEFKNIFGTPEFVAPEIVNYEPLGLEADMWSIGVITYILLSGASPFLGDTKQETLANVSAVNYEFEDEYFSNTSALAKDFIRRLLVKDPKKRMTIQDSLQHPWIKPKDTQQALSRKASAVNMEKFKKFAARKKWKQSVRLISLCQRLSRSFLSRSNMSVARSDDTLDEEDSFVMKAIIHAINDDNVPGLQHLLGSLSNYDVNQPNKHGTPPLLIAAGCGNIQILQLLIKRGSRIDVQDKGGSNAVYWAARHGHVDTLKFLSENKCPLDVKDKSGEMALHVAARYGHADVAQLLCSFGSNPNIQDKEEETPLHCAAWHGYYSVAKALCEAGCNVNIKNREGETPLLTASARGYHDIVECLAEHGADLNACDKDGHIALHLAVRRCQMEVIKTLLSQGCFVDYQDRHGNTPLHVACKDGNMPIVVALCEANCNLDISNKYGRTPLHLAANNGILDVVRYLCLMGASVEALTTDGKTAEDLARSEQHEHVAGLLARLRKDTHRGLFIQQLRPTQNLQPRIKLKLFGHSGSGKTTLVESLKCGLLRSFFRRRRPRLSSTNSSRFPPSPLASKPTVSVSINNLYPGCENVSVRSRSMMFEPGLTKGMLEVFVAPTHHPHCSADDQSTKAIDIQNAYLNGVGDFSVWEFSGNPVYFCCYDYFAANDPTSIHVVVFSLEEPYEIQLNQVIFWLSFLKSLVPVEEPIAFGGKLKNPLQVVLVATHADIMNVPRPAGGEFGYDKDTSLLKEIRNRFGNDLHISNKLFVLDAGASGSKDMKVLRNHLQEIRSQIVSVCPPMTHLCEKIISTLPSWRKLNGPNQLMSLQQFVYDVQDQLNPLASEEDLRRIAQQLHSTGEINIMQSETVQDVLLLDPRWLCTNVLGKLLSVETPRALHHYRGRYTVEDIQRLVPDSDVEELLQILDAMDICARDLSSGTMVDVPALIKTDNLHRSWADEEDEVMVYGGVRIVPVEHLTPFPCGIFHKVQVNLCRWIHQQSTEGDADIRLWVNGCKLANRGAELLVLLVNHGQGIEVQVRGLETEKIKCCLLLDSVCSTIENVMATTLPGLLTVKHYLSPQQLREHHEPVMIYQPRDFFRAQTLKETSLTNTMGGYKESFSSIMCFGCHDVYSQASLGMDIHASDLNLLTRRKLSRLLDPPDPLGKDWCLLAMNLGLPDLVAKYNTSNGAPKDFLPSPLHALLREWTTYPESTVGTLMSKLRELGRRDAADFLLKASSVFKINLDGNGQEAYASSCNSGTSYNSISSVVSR
# T28 sequence (P57059 whole entry): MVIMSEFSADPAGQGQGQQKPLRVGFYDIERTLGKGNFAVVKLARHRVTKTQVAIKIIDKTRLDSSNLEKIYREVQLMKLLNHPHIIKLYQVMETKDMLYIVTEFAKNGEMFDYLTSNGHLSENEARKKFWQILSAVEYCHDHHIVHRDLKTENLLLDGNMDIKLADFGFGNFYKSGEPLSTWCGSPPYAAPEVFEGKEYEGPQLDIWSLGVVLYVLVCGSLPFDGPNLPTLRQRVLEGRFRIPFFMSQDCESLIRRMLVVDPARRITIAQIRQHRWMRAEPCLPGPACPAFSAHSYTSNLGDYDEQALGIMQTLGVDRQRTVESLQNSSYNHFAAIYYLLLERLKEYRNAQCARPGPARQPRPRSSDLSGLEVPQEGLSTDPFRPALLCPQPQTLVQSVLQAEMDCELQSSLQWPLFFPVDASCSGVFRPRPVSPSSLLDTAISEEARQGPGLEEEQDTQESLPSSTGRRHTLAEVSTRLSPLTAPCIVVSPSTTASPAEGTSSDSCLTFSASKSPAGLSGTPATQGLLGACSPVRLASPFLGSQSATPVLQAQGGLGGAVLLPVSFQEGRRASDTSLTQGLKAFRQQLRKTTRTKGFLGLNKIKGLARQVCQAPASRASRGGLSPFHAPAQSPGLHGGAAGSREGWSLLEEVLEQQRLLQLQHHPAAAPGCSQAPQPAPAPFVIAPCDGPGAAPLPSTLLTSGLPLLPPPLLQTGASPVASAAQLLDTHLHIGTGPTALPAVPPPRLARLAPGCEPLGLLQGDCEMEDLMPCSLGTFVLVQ
# T27 sequence (Q15418 392-735 limits assumed): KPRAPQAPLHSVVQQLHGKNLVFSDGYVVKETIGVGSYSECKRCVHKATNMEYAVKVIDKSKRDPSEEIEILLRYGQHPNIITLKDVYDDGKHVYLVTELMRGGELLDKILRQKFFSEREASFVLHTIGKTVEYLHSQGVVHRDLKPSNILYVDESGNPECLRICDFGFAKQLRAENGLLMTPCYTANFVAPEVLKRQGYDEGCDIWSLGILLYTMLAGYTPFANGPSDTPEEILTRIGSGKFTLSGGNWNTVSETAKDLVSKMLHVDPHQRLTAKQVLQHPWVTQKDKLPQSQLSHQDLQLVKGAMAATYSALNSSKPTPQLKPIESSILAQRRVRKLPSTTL
# T37 sequence (Q02750 whole entry): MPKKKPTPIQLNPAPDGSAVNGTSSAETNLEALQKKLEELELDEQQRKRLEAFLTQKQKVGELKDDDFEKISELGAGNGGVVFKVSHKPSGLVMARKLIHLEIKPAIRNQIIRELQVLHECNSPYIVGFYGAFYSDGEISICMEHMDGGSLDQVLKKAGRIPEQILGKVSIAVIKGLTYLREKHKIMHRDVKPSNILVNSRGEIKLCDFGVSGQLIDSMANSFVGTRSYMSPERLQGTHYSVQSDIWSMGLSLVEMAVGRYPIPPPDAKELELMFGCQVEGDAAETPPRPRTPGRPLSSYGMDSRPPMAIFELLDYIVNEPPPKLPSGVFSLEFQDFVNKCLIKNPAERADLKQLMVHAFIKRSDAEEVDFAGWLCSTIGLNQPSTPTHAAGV
structure (smiles),measurement,setting,value
C=CC(=O)N1CCC[C@@H](n2nc(-c3ccc(OCc4cccc(C)n4)c(Cl)c3)c3c(N)ncnc32)C1 [CHMFL-EGFR-26],remaining binding at 1 µM,[1],98%
same,remaining binding at 1 µM,ABL2,99%
same,remaining binding at 1 µM,AMPK-alpha1,79%
same,remaining binding at 1 µM,ASK2,68%
same,remaining binding at 1 µM,CAMK2D,91%
same,remaining binding at 1 µM,CDK3,84%
same,remaining binding at 1 µM,DAPK1,77%
same,remaining binding at 1 µM,DCAMKL1,88%
same,remaining binding at 1 µM,"EGFR(L858R,T790M)",2.8%
same,remaining binding at 1 µM,ERBB4,0.45%
same,remaining binding at 1 µM,FLT3(K663Q),97%
same,remaining binding at 1 µM,FRK,96%
same,remaining binding at 1 µM,GRK2,99%
same,remaining binding at 1 µM,GRK7,100%
same,remaining binding at 1 µM,HUNK,72%
same,remaining binding at 1 µM,LATS2,96%
same,remaining binding at 1 µM,LIMK1,99%
same,remaining binding at 1 µM,MERTK,79%
same,remaining binding at 1 µM,MKK7,2.5%
same,remaining binding at 1 µM,MST1,61%
same,remaining binding at 1 µM,MYLK4,100%
same,remaining binding at 1 µM,PAK2,77%
same,remaining binding at 1 µM,PIP5K2B,100%
same,remaining binding at 1 µM,PRKCI,100%
same,remaining binding at 1 µM,PRKCQ,57%
same,remaining binding at 1 µM,RET(V804M),93%
same,remaining binding at 1 µM,[2],83%
same,remaining binding at 1 µM,SIK,69%
same,remaining binding at 1 µM,SNARK,25%
same,remaining binding at 1 µM,STK36,92%
same,IC50,BLK,3.9 nM
same,IC50,BMX,38.9 nM
same,IC50,BTK,16.3 nM
same,IC50,HER2,15.9 nM
same,IC50,HER4,5.39 nM
same,IC50,JAK3,30.6 nM
same,IC50,MEK1,131 nM
same,IC50,BaF3-INSR,2800 nM
same,IC50,BaF3-IGF1R,3600 nM
